Assay results taken from patent US20100093817A1, “Compounds” (BIAL - PORTELA & CA S.A., priority 2007, published 2010).
Counter-ions that a name gives are not always drawn.

How the values were obtained:
[1] = molecular target: T1, human dopamine-β-hydroxylase (Homo sapiens, UniProt P09172); test: Human DβH in vitro assay: β-hydroxylation of dopamine to noradrenaline, SK-N-SH cells as enzyme source; format: biochemical; parameters: key to In vitro DβH inhibition: + = inhibitory activity; conditions: for In vitro DβH inhibition / IC50: SK-N-SH cells as source of human DβH, 50 mM dopamine, test compounds 0.3 to 10,000 nM; for IC50: read-out: In vitro DβH inhibition (IC50 μM); for % control Mean ± SEM: human DβH in vitro assay
T1 construct: SK-N-SH cells (ATCC HTB-11), a human neuroblastoma derived cell line, were used as a source of human dopamine-β-hydroxylase; host or cells: SK-N-SH human neuroblastoma cells
T1 sequence (P09172 1-617): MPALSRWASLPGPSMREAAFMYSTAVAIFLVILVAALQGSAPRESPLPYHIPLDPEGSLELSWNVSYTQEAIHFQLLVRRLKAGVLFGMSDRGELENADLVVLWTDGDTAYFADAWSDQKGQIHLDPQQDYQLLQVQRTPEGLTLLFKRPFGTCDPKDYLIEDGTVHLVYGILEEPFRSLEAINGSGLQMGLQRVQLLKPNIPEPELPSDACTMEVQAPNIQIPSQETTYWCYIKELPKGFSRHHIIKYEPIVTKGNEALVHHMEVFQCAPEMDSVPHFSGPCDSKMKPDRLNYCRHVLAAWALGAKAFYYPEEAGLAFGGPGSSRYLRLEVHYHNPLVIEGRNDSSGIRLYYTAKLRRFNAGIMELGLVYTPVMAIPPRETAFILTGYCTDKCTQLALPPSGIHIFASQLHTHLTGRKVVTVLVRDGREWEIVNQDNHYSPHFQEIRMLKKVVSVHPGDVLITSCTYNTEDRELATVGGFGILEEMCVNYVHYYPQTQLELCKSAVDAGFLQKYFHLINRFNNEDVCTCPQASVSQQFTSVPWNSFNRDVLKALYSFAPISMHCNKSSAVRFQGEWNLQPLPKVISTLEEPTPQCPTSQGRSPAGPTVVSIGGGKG
Protocol: Dopamine-β-hydroxylase activity was evaluated by the ability to β-hydroxylate dopamine to noradrenaline as previously described (Kojima, K., Parvez, S. and Nagatsu T. 1993. Analysis of enzymes in catecholamine biosynthesis. In Methods in Neurotransmitter and Neuropeptide Research, pp. 349-380: Elsevier Science Publishers). SK-N-SH cells (ATCC HTB-11), a human neuroblastoma derived cell line, were used as a source of human dopamine-β-hydroxylase. SK-N-SH cells cultured in 24 well plates were preincubated for 20 min in a reaction medium containing 200 mM sodium acetate, 30 mM N-ethylmaleimide, 5 μM copper sulphate, 0.5 mg/ml catalase aqueous solution, 1 mM pargyline, 10 mM sodium fumarate and 20 mM ascorbic acid. Thereafter, cells were incubated for further 45 min in the reaction medium with added increasing concentrations of dopamine (0.5 to 100 mM). During preincubation and incubation, the cells were continuously shaken and maintained at 37° C. The reaction was terminated by the addition of 0.2 M perchloric acid. The acidified samples were stored at 4° C. before injection into the high pressure liquid chromatograph for the assay of noradrenaline. In experiments conducted with the aim of studying the effects of new dopamine-β-hydroxylase inhibitors on enzyme activity, test compounds (0.3 to 10,000 nM) of interest were added to the preincubation and incubation solutions; the incubation was performed in the presence of a concentration (50 mM) of dopamine 2.5 times the corresponding Km value as determined in saturation experiments.

[2] = literature finding; central as well as peripheral effects; cited from earlier work

With CC(=O)NCCc1c[nH]c(=S)n1[C@H]1COc2c(F)cc(F)cc2C1 [compound II, (R)-N-(2-(3-(6,8-difluorochroman-3-yl)-2-thioxo-2,3-dihydro-1H-imidazol-4-yl)ethyl)acetamide] the “In vitro DβH inhibition” value [1] was “+” and the IC50 [1] was 0.5 µM.

In the case of NCc1c[nH]c(=S)n1[C@H]1CCc2c(F)cc(F)cc2C1 [Nepicastat, reference compound], the “% control Mean ± SEM” value ([1]; compound at 5 μM) is given as 0.4 ± 0.2 % control and the “crossing of the blood brain barrier (BBB)” value [2] is given as “cross the blood brain barrier”.

In the case of O=C(O)Cc1c[nH]c(=S)n1[C@H]1COc2c(F)cc(F)cc2C1 [compound III, (R)-2-(3-(6,8-difluorochroman-3-yl)-2-thioxo-2,3-dihydro-1H-imidazol-4-yl)acetic acid], the “In vitro DβH inhibition” value [1] is reported as “+” and the IC50 [1] is reported as 0.6 µM.

With ONCCc1c[nH]c(=S)n1[C@H]1COc2c(F)cc(F)cc2C1 [compound V, (R)-1-(6,8-difluorochroman-3-yl)-5-(2-(hydroxyamino)ethyl)-1H-imidazole-2(3H)-thione hydrochloride] the “In vitro DβH inhibition” value [1] was “+” and the IC50 [1] was 0.5 µM.

For NCCc1c[nH]c(=S)n1[C@H]1COc2c(F)cc(F)cc2C1 [Compound I, (R)-5-(2-aminoethyl)-1-(6,8-difluorochroman-3-yl)-1,3-dihydroimidazole-2-thione, reference compound], the “In vitro DβH inhibition” value [1] was “+” and the IC50 [1] was 0.2 µM.

For NCCc1c[nH]c(=S)n1[C@H]1COc2c(F)cc(F)cc2[C@@H]1O [compound VI, 5-(2-Aminoethyl)-1-((3S ,4S)-6,8-difluoro-4-hydroxychroman-3-yl)-1H-imidazole-2(3H)-thione hydrochloride], the “In vitro DβH inhibition” value [1] was “+”.

For O=S(=O)([O-])NCCc1c[nH]c(=S)n1[C@H]1COc2c(F)cc(F)cc2C1.[Na+] [compound VIII, Sodium (R)-2-(3-(6,8-difluorochroman-3-yl)-2-thioxo-2,3-dihydro-1H-imidazol-4-yl)ethylsulfamate], the “In vitro DβH inhibition” value [1] was “+”, the “% control Mean ± SEM” value ([1]; compound at 0.5 μM) was 32.1 ± 1.1 % control and the “% control Mean ± SEM” value ([1]; compound at 1 μM) was 20.3 ± 0.7 % control. For the same compound, the “% control Mean ± SEM” value ([1]; compound at 5 μM) was 3.5 ± 1.1 % control.

With NC(=O)Cc1c[nH]c(=S)n1[C@H]1COc2c(F)cc(F)cc2C1 [compound IV, (R)-2-(3-(6,8-difluorochroman-3-yl)-2-thioxo-2,3-dihydro-1H-imidazol-4-yl)acetamide] the “In vitro DβH inhibition” value [1] was “+” and the IC50 [1] was 1.8 µM.
